Results on four compounds are retold here after ChEMBL document CHEMBL4184181, “Evaluation of alkylating pyrrole-imidazole polyamide conjugates by a novel method for high-throughput sequencer” (Bioorg Med Chem, 2018).

pIC50: −log10 of the molar value. The source made the active and inactive calls. No cut-off for these calls is given here.

The subject of one test is A549. In words: Cytotoxicity against human A549 cells after 48 hrs by WST8 assay. As to conditions: A549, 48 h. In kind it is functional, cell-based.
For test [1], the species on record is Bos taurus. Description: Alkylating activity at CTCCACC sequence of calf thymus DNA assessed as enrichment ratio by measuring ratio of sample to input control after 1 hr by MERMADE method. In kind it is functional.
The species entered for test [2] is Bos taurus. In words: Alkylating activity at CCACCTC sequence of calf thymus DNA assessed as enrichment ratio by measuring ratio of sample to input control after 1 hr by MERMADE method. In kind it is functional.
For test [3], the species on record is Bos taurus. Description: Alkylating activity at CACCTCA sequence of calf thymus DNA assessed as enrichment ratio by measuring ratio of sample to input control after 1 hr by MERMADE method. In kind it is functional.
The species named for test [4] is Bos taurus. In words: Alkylating activity at CCACTCC sequence of calf thymus DNA assessed as enrichment ratio by measuring ratio of sample to input control after 1 hr by MERMADE method. In kind it is functional.
The species entered for test [5] is Bos taurus. Description: Alkylating activity at ACCTCAG sequence of calf thymus DNA assessed as enrichment ratio by measuring ratio of sample to input control after 1 hr by MERMADE method. In kind it is functional.
Test [6] is filed under the species Bos taurus. In words: Alkylating activity at GAGGTGA sequence of calf thymus DNA assessed as enrichment ratio by measuring ratio of sample to input control after 1 hr by MERMADE method. In kind it is functional.
The species named for test [7] is Bos taurus. Description: Alkylating activity at ACCTCAA sequence of calf thymus DNA assessed as enrichment ratio by measuring ratio of sample to input control after 1 hr by MERMADE method. In kind it is functional.
The species entered for test [8] is Bos taurus. In words: Alkylating activity at GAGGTTA sequence of calf thymus DNA assessed as enrichment ratio by measuring ratio of sample to input control after 1 hr by MERMADE method. In kind it is functional.
The species entered for test [9] is Bos taurus. In words: Alkylating activity at AGGTGAG sequence of calf thymus DNA assessed as enrichment ratio by measuring ratio of sample to input control after 1 hr by MERMADE method. In kind it is functional.
Test [10] is filed under the species Bos taurus. Description: Alkylating activity at ACCTCAC sequence of calf thymus DNA assessed as enrichment ratio by measuring ratio of sample to input control after 1 hr by MERMADE method. In kind it is functional.
Test [11] is filed under the species Bos taurus. In words: Alkylating activity at GGTGAGA sequence of calf thymus DNA assessed as enrichment ratio by measuring ratio of sample to input control after 1 hr by MERMADE method. In kind it is functional.
For test [12], the species on record is Bos taurus. In words: Alkylating activity at CCTCACC sequence of calf thymus DNA assessed as enrichment ratio by measuring ratio of sample to input control after 1 hr by MERMADE method. In kind it is functional.
The species entered for test [13] is Bos taurus. In words: Alkylating activity at TACCTCA sequence of calf thymus DNA assessed as enrichment ratio by measuring ratio of sample to input control after 1 hr by MERMADE method. In kind it is functional.
The species named for test [14] is Bos taurus. Description: Alkylating activity at ACTCCTC sequence of calf thymus DNA assessed as enrichment ratio by measuring ratio of sample to input control after 1 hr by MERMADE method. In kind it is functional.
Test [15] is filed under the species Bos taurus. In words: Alkylating activity at CGACCTC sequence of calf thymus DNA assessed as enrichment ratio by measuring ratio of sample to input control after 1 hr by MERMADE method. In kind it is functional.
The species entered for test [16] is Bos taurus. Description: Alkylating activity at ACCTCAT sequence of calf thymus DNA assessed as enrichment ratio by measuring ratio of sample to input control after 1 hr by MERMADE method. In kind it is functional.
The species named for test [17] is Bos taurus. In words: Alkylating activity at GTGAGGA sequence of calf thymus DNA assessed as enrichment ratio by measuring ratio of sample to input control after 1 hr by MERMADE method. In kind it is functional.
Test [18] is filed under the species Bos taurus. Description: Alkylating activity at CTACCTC sequence of calf thymus DNA assessed as enrichment ratio by measuring ratio of sample to input control after 1 hr by MERMADE method. In kind it is functional.
For test [19], the species on record is Bos taurus. In words: Alkylating activity at ACCTCTA sequence of calf thymus DNA assessed as enrichment ratio by measuring ratio of sample to input control after 1 hr by MERMADE method. In kind it is functional.
The species entered for test [20] is Bos taurus. Description: Alkylating activity at ATACCTC sequence of calf thymus DNA assessed as enrichment ratio by measuring ratio of sample to input control after 1 hr by MERMADE method. In kind it is functional.
Test [21] is filed under the species Bos taurus. Description: Alkylating activity at CACTAGA sequence of calf thymus DNA assessed as enrichment ratio by measuring ratio of sample to input control after 1 hr by MERMADE method. In kind it is functional.
Test [22] is filed under the species Bos taurus. Description: Alkylating activity at CCTCTAC sequence of calf thymus DNA assessed as enrichment ratio by measuring ratio of sample to input control after 1 hr by MERMADE method. In kind it is functional.
The species entered for test [23] is Bos taurus. In words: Alkylating activity at CCTCTAG sequence of calf thymus DNA assessed as enrichment ratio by measuring ratio of sample to input control after 1 hr by MERMADE method. In kind it is functional.
Test [24] is filed under the species Bos taurus. Description: Alkylating activity at calf thymus DNA containing adenine at seventh position of motif by MR method. In kind it is functional.
Test [25] is filed under the species Bos taurus. In words: Alkylating activity at ACCACTA sequence of calf thymus DNA assessed as enrichment ratio by measuring ratio of sample to input control after 1 hr by MERMADE method. In kind it is functional.
The species entered for test [26] is Bos taurus. Description: Alkylating activity at CTAGTGA sequence of calf thymus DNA assessed as enrichment ratio by measuring ratio of sample to input control after 1 hr by MERMADE method. In kind it is functional.
The species named for test [27] is Bos taurus. Description: Alkylating activity at ATCACTA sequence of calf thymus DNA assessed as enrichment ratio by measuring ratio of sample to input control after 1 hr by MERMADE method. In kind it is functional.
The species named for test [28] is Bos taurus. Description: Alkylating activity at ATCTCTA sequence of calf thymus DNA assessed as enrichment ratio by measuring ratio of sample to input control after 1 hr by MERMADE method. In kind it is functional.
Test [29] is filed under the species Bos taurus. In words: Alkylating activity at CCACTAA sequence of calf thymus DNA assessed as enrichment ratio by measuring ratio of sample to input control after 1 hr by MERMADE method. In kind it is functional.
The species named for test [30] is Bos taurus. In words: Alkylating activity at TACACTA sequence of calf thymus DNA assessed as enrichment ratio by measuring ratio of sample to input control after 1 hr by MERMADE method. In kind it is functional.
Test [31] is filed under the species Bos taurus. In words: Alkylating activity at CCACTAG sequence of calf thymus DNA assessed as enrichment ratio by measuring ratio of sample to input control after 1 hr by MERMADE method. In kind it is functional.
The species entered for test [32] is Bos taurus. In words: Alkylating activity at AGTGGTA sequence of calf thymus DNA assessed as enrichment ratio by measuring ratio of sample to input control after 1 hr by MERMADE method. In kind it is functional.
The species named for test [33] is Bos taurus. Description: Alkylating activity at ACTAGTG sequence of calf thymus DNA assessed as enrichment ratio by measuring ratio of sample to input control after 1 hr by MERMADE method. In kind it is functional.
For test [34], the species on record is Bos taurus. In words: Alkylating activity at TAGTGAA sequence of calf thymus DNA assessed as enrichment ratio by measuring ratio of sample to input control after 1 hr by MERMADE method. In kind it is functional.
For test [35], the species on record is Bos taurus. Description: Alkylating activity at CTCTAGA sequence of calf thymus DNA assessed as enrichment ratio by measuring ratio of sample to input control after 1 hr by MERMADE method. In kind it is functional.
Test [36] is filed under the species Bos taurus. In words: Alkylating activity at ACCATTA sequence of calf thymus DNA assessed as enrichment ratio by measuring ratio of sample to input control after 1 hr by MERMADE method. In kind it is functional.
The species entered for test [37] is Bos taurus. Description: Alkylating activity at TCACTAA sequence of calf thymus DNA assessed as enrichment ratio by measuring ratio of sample to input control after 1 hr by MERMADE method. In kind it is functional.
For test [38], the species on record is Bos taurus. In words: Alkylating activity at CCTCAAG sequence of calf thymus DNA assessed as enrichment ratio by measuring ratio of sample to input control after 1 hr by MERMADE method. In kind it is functional.
The species named for test [39] is Bos taurus. In words: Alkylating activity at CCTCTAA sequence of calf thymus DNA assessed as enrichment ratio by measuring ratio of sample to input control after 1 hr by MERMADE method. In kind it is functional.

By pIC50 is commonly meant the IC50 on a negative log10 scale, so that one unit is a factor of ten.

As for `CC(=O)Nc1cn(C)c(C(=O)Nc2cn(C)c(C(=O)Nc3cn(C)c(C(=O)Nc4cn(C)c(C(=O)NCC[C@@H](NC(=O)OC(C)(C)C)C(=O)Nc5ccc(C(=O)Nc6cn(C)cc6C(=O)Nc6ccc7[nH]c(C(=O)N8CC(CCl)c9c8cc(O)c8ccccc98)cc7c6)n5C)n4)n3)n2)n1` (stereo partly drawn), the pIC50 with A549 was 6.92.

Consider `CC(=O)Nc1cn(C)c(C(=O)Nc2cn(C)c(C(=O)Nc3cn(C)c(C(=O)Nc4cn(C)c(C(=O)NCC[C@@H](NC(=O)CCOCCOCCOCCOCCOCCOCCOCCOCCOCCOCCOCCOCCNC(=O)CCCC[C@@H]5SC[C@@H]6NC(=O)N[C@@H]65)C(=O)Nc5ccc(C(=O)Nc6cn(C)cc6C(=O)Nc6ccc7[nH]c(C(=O)N8CC(CCl)c9c8cc(O)c8ccccc98)cc7c6)n5C)n4)n3)n2)n1` (stereo partly drawn), for which the Ratio was found to be 2.06 in the test listed under Bos taurus [1]; 2.4 in the test listed under Bos taurus [2]; 2.44 in the test filed under Bos taurus [3]; 2.04 in the test listed under Bos taurus [4]; 2.05 in the test listed under Bos taurus [5]; 2.06 in the test filed under Bos taurus [6]. The Ratio in the test filed under Bos taurus [7] stood at 2.07; in the test listed under Bos taurus [8] it was 2.21; in the test listed under Bos taurus [9], 2.24; in the test listed under Bos taurus [10], 2.69; in the test filed under Bos taurus [11], 2.06; in the test filed under Bos taurus [12], 2.65. Also, the Ratio amounted to 2.48 in the test listed under Bos taurus [13]; 2 in the test listed under Bos taurus [14]; 2 in the test filed under Bos taurus [15]; 2.17 in the test filed under Bos taurus [16]; 2.02 in the test filed under Bos taurus [17]; 2.12 in the test filed under Bos taurus [18]. Moreover, the values for the Ratio in the test filed under Bos taurus [19] and in the test filed under Bos taurus [20] were 2.01 and 2.02, respectively.

For `CC(=O)Nc1cn(C)c(C(=O)Nc2cn(C)c(C(=O)Nc3cn(C)c(C(=O)Nc4cn(C)c(C(=O)NCC[C@@H](NC(=O)OC(C)(C)C)C(=O)Nc5ccc(C(=O)Nc6cn(C)cc6C(=O)Nc6cn(C)cc6C(=O)Nc6ccc7[nH]c(C(=O)N8CC(CCl)c9c8cc(O)c8ccccc98)cc7c6)n5C)n4)n3)n2)n1` (stereo partly drawn), in the test on A549, the pIC50 is 7.20.

For `CC(=O)Nc1cn(C)c(C(=O)Nc2cn(C)c(C(=O)Nc3cn(C)c(C(=O)Nc4cn(C)c(C(=O)NCC[C@@H](NC(=O)CCOCCOCCOCCOCCOCCOCCOCCOCCOCCOCCOCCOCCNC(=O)CCCC[C@@H]5SC[C@@H]6NC(=O)N[C@@H]65)C(=O)Nc5ccc(C(=O)Nc6cn(C)cc6C(=O)Nc6cn(C)cc6C(=O)Nc6ccc7[nH]c(C(=O)N8CC(CCl)c9c8cc(O)c8ccccc98)cc7c6)n5C)n4)n3)n2)n1` (stereo partly drawn), the Ratio worked out at 3.64 in the test filed under Bos taurus [21]; 3.33 in the test filed under Bos taurus [22]; 4.45 in the test listed under Bos taurus [23]; 5.11 in the test listed under Bos taurus [25]; 3.82 in the test listed under Bos taurus [26]; 4.19 in the test listed under Bos taurus [7]. The Ratio in the test filed under Bos taurus [27] worked out at 4.94; in the test listed under Bos taurus [28], 3.46; in the test filed under Bos taurus [29], 3.16; in the test listed under Bos taurus [30], 3.63; in the test filed under Bos taurus [31], 4.13; in the test filed under Bos taurus [32] it was 3.37. The Ratio in the test filed under Bos taurus [33] stood at 3.82; in the test filed under Bos taurus [34], 4.34; in the test filed under Bos taurus [35], 3.68; in the test filed under Bos taurus [36] it was 3.28; in the test listed under Bos taurus [37] it was 3.61; in the test filed under Bos taurus [38] it was 3.19. Also, the Ratio amounted to 3.79 in the test listed under Bos taurus [39] and 6.96 in the test filed under Bos taurus [19]. Also, in the test filed under Bos taurus [24], the result was Active.
